Source: PMC11724841 (Communications Biology, 2025)
Each block holds one compound with its values, some of them ahead of it.

Tests used:
[1] = target: Hlr. halophila RC (in LH1–RC–HiPIP complex) (Halorhodospira halophila, UniProt A1WXF6+A1WXF7); assay: cryo-EM structure, […] Å; assay type: binding; settings: native complex
[2] = target: Halorhodospira halophila LH1–RC core complex (Halorhodospira halophila strain BN9622); assay: cryo-EM structure
iso-3 HiPIP = target: T1, iso-3 HiPIP (Halorhodospira halophila, UniProt A1WXH6); assay: cryo-EM structure, […] Å; assay type: binding; settings: native complex; functional N-terminal domain
T1 sequence (A1WXH6 26-145): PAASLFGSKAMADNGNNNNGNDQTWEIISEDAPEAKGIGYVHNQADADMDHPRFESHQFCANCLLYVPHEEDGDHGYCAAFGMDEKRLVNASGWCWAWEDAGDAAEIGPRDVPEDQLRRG

Chain of Hlr. halophila RC (in LH1–RC–HiPIP complex) (A1WXF7 1-276): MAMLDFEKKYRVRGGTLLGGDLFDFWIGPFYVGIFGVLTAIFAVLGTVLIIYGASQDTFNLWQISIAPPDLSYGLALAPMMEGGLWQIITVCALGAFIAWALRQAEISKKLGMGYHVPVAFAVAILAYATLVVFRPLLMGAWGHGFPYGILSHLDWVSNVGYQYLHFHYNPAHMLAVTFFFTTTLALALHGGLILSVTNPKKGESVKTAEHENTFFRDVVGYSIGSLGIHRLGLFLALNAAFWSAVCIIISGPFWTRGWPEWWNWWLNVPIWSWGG
Chain of Hlr. halophila RC (in LH1–RC–HiPIP complex) (A1WXF6 1-323): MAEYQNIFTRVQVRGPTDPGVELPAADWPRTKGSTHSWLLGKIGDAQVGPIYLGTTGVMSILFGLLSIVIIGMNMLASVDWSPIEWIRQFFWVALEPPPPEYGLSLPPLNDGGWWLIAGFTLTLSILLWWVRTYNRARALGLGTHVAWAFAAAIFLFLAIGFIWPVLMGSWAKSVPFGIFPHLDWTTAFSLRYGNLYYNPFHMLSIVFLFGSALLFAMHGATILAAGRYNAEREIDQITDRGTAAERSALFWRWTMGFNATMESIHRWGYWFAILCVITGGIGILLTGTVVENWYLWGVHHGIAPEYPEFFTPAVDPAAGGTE
Chain of Hlr. halophila RC (in LH1–RC–HiPIP complex) (A1WXI3 1-278 partner): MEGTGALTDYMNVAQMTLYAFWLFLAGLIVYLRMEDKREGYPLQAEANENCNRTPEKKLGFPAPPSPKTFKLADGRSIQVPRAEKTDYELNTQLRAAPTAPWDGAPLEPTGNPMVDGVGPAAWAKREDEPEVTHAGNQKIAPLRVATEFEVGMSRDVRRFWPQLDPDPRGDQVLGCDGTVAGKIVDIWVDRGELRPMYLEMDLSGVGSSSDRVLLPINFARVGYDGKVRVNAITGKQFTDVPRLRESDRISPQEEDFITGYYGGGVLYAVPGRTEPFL
Chain of Hlr. halophila RC (in LH1–RC–HiPIP complex) (A1WXF5 26-362 partner): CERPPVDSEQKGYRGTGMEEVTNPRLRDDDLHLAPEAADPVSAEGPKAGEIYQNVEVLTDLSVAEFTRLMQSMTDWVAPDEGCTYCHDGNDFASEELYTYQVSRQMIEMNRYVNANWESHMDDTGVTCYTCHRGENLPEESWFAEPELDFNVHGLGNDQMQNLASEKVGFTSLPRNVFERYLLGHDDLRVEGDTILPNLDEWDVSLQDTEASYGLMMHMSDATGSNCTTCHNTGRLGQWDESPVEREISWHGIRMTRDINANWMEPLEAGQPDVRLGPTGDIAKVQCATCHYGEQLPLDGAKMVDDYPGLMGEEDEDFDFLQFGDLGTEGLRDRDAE

Compound: COC1=C(OC)C(=O)C(C/C=C(\C)CC/C=C(\C)CC/C=C(\C)CC/C=C(\C)CC/C=C(\C)CC/C=C(\C)CC/C=C(\C)CCC=C(C)C)=C(C)C1=O [UQ-8, ubiquinone-8]
cryo-EM structure, 2.44 Å ([1]; QB site): one MQ-8 and one UQ-8 were identified unambiguously at the RC QA and QB sites

Compound: CC(C)=CCC/C(C)=C/CC/C(C)=C/CC/C(C)=C/CC/C(C)=C/CC/C(C)=C/CC/C(C)=C/CC/C(C)=C/CC1=C(C)C(=O)c2ccccc2C1=O [MQ-8, menaquinone-8]
cryo-EM structure, 2.44 Å ([1]; QA site): one MQ-8 and one UQ-8 were identified unambiguously at the RC QA and QB sites

Compound: Halorhodospira halophila iso-3 high-potential iron–sulfur protein (HiPIP) (natural protein)
percent of LH1–RC particles with bound HiPIP [2]: 66.7%

Compound: [S]12[Fe]3[S]4[Fe]1[S]1[Fe]2[S]3[Fe]41 [4Fe–4S, 4Fe–4S cluster]
cryo-EM structure, 2.44 Å (iso-3 HiPIP): N-terminal functional portion containing the 4Fe–4S cluster

cryo-EM structure, 2.44 Å ([1]; RC pigment, printed only as BPhe): BPhe, orange sticks
Compound: CC[C@H]1c2cc3[nH]c4c(c3C)C(=O)[C@H](C(=O)OC)c4c3nc(cc4[nH]c(cc(n2)[C@@H]1C)c(C(C)=O)c4C)[C@@H](C)[C@@H]3CCC(=O)OC/C=C(\C)CCC[C@H](C)CCC[C@H](C)CCCC(C)C [BPhe]
